The DC50 is the midpoint of the concentration-degradation curve. Read a low DC50 as degradation at low concentration.

Among the data in patent US20240383886A1, “Protein Tyrosine Phosphatase Degraders and Methods of Use Thereof” (CALICO LIFE SCIENCES LLC, priority 2019, published 2024) are DC50 values, retold here.

In assay [1] the target is T1, PTPN2 (Homo sapiens, UniProt P17706).
T1 construct: expressed in transfected cells; host or cells: 293T (293T.109 HiBiT-PTPN2 line; parental 293T WT from ATCC)
T1 sequence (P17706 1-415): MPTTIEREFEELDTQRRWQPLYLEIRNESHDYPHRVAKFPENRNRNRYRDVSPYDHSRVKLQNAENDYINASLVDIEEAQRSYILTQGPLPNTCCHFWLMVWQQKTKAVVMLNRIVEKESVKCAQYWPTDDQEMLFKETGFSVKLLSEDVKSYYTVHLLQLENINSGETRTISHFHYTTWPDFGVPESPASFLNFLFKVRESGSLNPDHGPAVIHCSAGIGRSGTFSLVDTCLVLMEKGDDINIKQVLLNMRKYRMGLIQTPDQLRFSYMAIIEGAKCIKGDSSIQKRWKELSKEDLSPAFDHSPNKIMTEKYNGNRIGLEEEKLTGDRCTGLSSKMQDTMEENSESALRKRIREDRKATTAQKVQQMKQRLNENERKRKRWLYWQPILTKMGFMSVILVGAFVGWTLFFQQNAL
Briefly: HiBiT-Degradation 293T.109 PTPN2 (Nano-Glo HiBiT Lytic Assay). It is filed as cell-based. The settings on record: 293T.109 (HiBiT-PTPN2) cells, 24.0 hours. In outline: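 Luminescence from a lytic HiBiT read gave PTPN2 levels after 24 h compound exposure at 37° C. Compounds were tested at 11 half-log points from a 10 μM top concentration, in duplicate. The cells were 293T engineered with an N-terminal HiBiT–PTPN2 fusion, plated at 5000 per well, with untreated wells as negative control and no-reagent wells as positive control.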

The subject of assay [2] is PTPN2. Briefly: HiBiT-Degradation B16F10.4 PTPN2. The format is cell-based. The settings on record: B16F10.4 cells, 24.0 hours.

Bounds are passed on as bounds.

Regarding `Cn1c(=O)n(C2CCC(=O)NC2=O)c2ccc(C3CCN(CCN4CC[C@@H](COc5ccc6cc(O)c(N7CC(=O)NS7(=O)=O)c(F)c6c5)C4)CC3)cc21` (stereo partly drawn) [Example 149, 3-[5-[1-[2-[(3R)-3-[[8-fluoro-6-hydroxy-7-(1,1,4-trioxo-1,2,5-thiadiazolidin-2-yl)-2-naphthyl]oxymethyl]pyrrolidin-1-yl]ethyl]-4-piperidyl]-3-methyl-2-oxo-benzimidazol-1-yl]piperidine-2,6-dione], the DC50 in assay [1] was 10 to 50 nM; in assay [2] it was 50 to 200 nM.
As to `Cn1c(=O)n(C2CCC(=O)NC2=O)c2ccc(C3CCN(CCN4CC[C@H](COc5ccc6cc(O)c(N7CC(=O)NS7(=O)=O)c(F)c6c5)C4)CC3)cc21` (stereo partly drawn) [Example 150, 3-[5-[1-[2-[(3S)-3-[[8-fluoro-6-hydroxy-7-(1,1,4-trioxo-1,2,5-thiadiazolidin-2-yl)-2-naphthyl]oxymethyl]pyrrolidin-1-yl]ethyl]-4-piperidyl]-3-methyl-2-oxo-benzimidazol-1-yl]piperidine-2,6-dione], the DC50 in assay [1] and in assay [2] was 50 to 200 nM throughout.
Turning to `Cn1c(=O)n(C2CCC(=O)NC2=O)c2ccc(-c3ccc(NCC(C)(C)CCOc4ccc5cc(O)c(N6CC(=O)NS6(=O)=O)c(F)c5c4)cc3)cc21` (centres unmarked) [Example 151, 3-[5-[4-[[4-[[8-fluoro-6-hydroxy-7-(1,1,4-trioxo-1,2,5-thiadiazolidin-2-yl)-2-naphthyl]oxy]-2,2-dimethyl-butyl]amino]phenyl]-3-methyl-2-oxo-benzimidazol-1-yl]piperidine-2,6-dione], the DC50 in assay [1] is 50 to 200 nM; in assay [2], no less than 1000 nM.
For `Cn1nc(C2CCC(=O)NC2=O)c2ccc(C3CCN(CCn4cc(-c5ccc6c(F)c(N7CC(=O)NS7(=O)=O)c(O)cc6c5)cn4)CC3)cc21` (centres unmarked) [Example 152, 3-[6-[1-[2-[4-[5-fluoro-7-hydroxy-6-(1,1,4-trioxo-1,2,5-thiadiazolidin-2-yl)-2-naphthyl]pyrazol-1-yl]ethyl]-4-piperidyl]-1-methyl-indazol-3-yl]piperidine-2,6-dione], the results for the DC50 in assay [1] and in assay [2] were 10 to 50 nM and 200 to 1000 nM, respectively.
Taken in the same sequence, the figures for `Cn1c(=O)n(C2CCC(=O)NC2=O)c2ccc(-c3ccc(CNCC(C)(C)CCOc4ccc5cc(O)c(N6CC(=O)NS6(=O)=O)c(F)c5c4)cc3)cc21` (centres unmarked) [Example 153, 3-[5-[4-[[[4-[[8-fluoro-6-hydroxy-7-(1,1,4-trioxo-1,2,5-thiadiazolidin-2-yl)-2-naphthyl]oxy]-2,2-dimethyl-butyl]amino]methyl]phenyl]-3-methyl-2-oxo-benzimidazol-1-yl]piperidine-2,6-dione] were 50 to 200 nM and 200 to 1000 nM.
The corresponding values for `Cn1c(=O)n(C2CCC(=O)NC2=O)c2ccc(C3CCN(Cc4ccn(-c5ccc6c(F)c(N7CC(=O)NS7(=O)=O)c(O)cc6c5)n4)CC3)cc21` (centres unmarked) [Example 154, 3-(5-(1-((1-(6-(1,1-dioxido-4-oxo-1,2,5-thiadiazolidin-2-yl)-5-fluoro-7-hydroxynaphthalen-2-yl)-1H-pyrazol-3-yl)methyl)piperidin-4-yl)-3-methyl-2-oxo-2,3-dihydro-1H-benzo[d]imidazol-1-yl)piperidine-2,6-dione] are 200 to 1000 nM and no less than 1000 nM.
The corresponding values for `Cn1c(=O)n(C2CCC(=O)NC2=O)c2ccc(N3CCC(O)(CC(=O)N4CC[C@@H](COc5ccc6cc(O)c(N7CC(=O)NS7(=O)=O)c(F)c6c5)C4)CC3)cc21` (stereo partly drawn) [Example 155, 3-[5-[4-[2-[(3R)-3-[[8-fluoro-6-hydroxy-7-(1,1,4-trioxo-1,2,5-thiadiazolidin-2-yl)-2-naphthyl]oxymethyl]pyrrolidin-1-yl]-2-oxo-ethyl]-4-hydroxy-1-piperidyl]-3-methyl-2-oxo-benzimidazol-1-yl]piperidine-2,6-dione] are 50 to 200 nM and 200 to 1000 nM.
